According to ChEMBL document CHEMBL1146430, “Alternatamides A-D: new bromotryptamine peptide antibiotics from the Atlantic marine bryozoan Amathia alternata” (1997):

Key:
Type in all cases: functional
Bacillus subtilis = assay: Antibacterial activity against Bacillus subtilis
Enterococcus faecalis = assay: Antibacterial activity against Enterococcus faecalis
Streptococcus pyogenes = assay: Antibacterial activity against Streptococcus pyogenes
[1] = system: Staphylococcus haemolyticus; assay: Antibacterial activity against Staphylococcus haemolyticus
Staphylococcus aureus = assay: Antibacterial activity against Staphylococcus aureus
Enterococcus faecium = assay: Antibacterial activity against Enterococcus faecium
[2] = system: Staphylococcus epidermidis; assay: Antibacterial activity against Staphylococcus epidermidis

Measured: MIC

CN[C@@H](CC(C)C)C(=O)NCCc1c(Br)[nH]c2ccc(Br)cc12 [ALTEMATAMIDE C]
4 µg/mL: all assays above

CN[C@@H](CC(C)C)C(=O)NCCc1c(Br)[nH]c2cc(Br)c(Br)cc12 [ALTEMATAMIDE B]
4 µg/mL: all assays above

CN[C@@H](CC(C)C)C(=O)NCCc1c(Br)n(C)c2cc(Br)c(Br)cc12 [ALTEMATAMIDE A]
4 µg/mL: all assays above
